One molecule from patent publication US20230406812A1, “NOVEL AMINOAROMATIC COMPOUND OR PHARMACEUTICALLY ACCEPTABLE SALT THEREOF, AND PHARMACEUTICAL COMPOSITION FOR PREVENTING OR TREATING NEURODEGENERATIVE DISEASES COMPRISING SAME AS ACTIVE INGREDIENT” (INSTITUTE FOR BASIC SCIENCE, priority 2020, published 2023) can be followed below.

Data set [1] relates to APP/PS1 mouse hippocampus astrocytes (GFAP). In words: Immunohistochemistry (IHC) I of brain tissue, GFAP. The data set is classed as in vivo. Particulars: 3 mg/kg/day IP for 16 days. Here is the method: (§1) The brain of the Alzheimer's animal model of Experimental Example 3 was fixed with formaldehyde, and sliced into a small thickness. The amount of cells or specific protein in the sliced brain was measured with an image by histochemical staining. In the present experimental example, an antibody labeling an astrocyte was used to measure a change in astrocytes related to dementia. The results are illustrated in FIG. 5. That is, in the present experimental example, the hippocampus of the brain was histologically stained and a change in astrocytes around dementia substance amyloid beta was observed. Glial fibrillary acidic protein (GFAP) refers to astrocytes staining, 4′,6-diamidino-2-phenylindole (DAPI) marked cell nuclei and amyloid beta substance.

Data set [2] is described as follows: Blood brain barrier (BBB) permeability analysis (PAMPA). The data set is classed as in vitro ADME. Here is the method: Based on J Med Chem. 2001 Mar. 15; 44 (6):923-30., an artificial blood brain barrier (BBB) was produced by a parallel artificial membrane permeability assay (PAMPA), and the permeability of the drug was assessed.
Data set [3] concerns APP/PS1+GiD Alzheimer's model mouse (APP+DTR). In words: Novel place recognition experiment. The data set is classed as in vivo. Particulars: 3 mg/kg/day i.p. As for the experimental part:
The cognitive function related to hippocampus was assessed by a novel place recognition experiment to confirm the cognitive impairment and recovery. The same objects were put for a certain period of time for interaction, and after one hour, the position of only one object was changed. When having a normal cognitive function, a past memory is maintained to grow interest in a new object, but when having cognitive impairment, a new place is not determined. At this time, as an animal model, an APP/PS1+GiD Alzheimer's mode mouse which is a more closely developed model mouse to the phenomenon shown in the Alzheimer's dementia patient was used. The APP/PS1+GiD Alzheimer's model mouse was produced referring to Nature Neuroscience 23, 1555-1566 (2020).
In the present experiment, APP/PS1+GiD was produced by injecting AAV-GFAP104-DTR-GFP virus into the hippocampus of the APP/PS1 mouse, and hereinafter, is referred to as “APP+DTR”. In addition, the product obtained by injecting AAV-GFAP104-GFP virus into the hippocampus of the APP/PS1 mouse was referred to as “APP+GFP”. In addition, APP+DTR to which the aminoaromatic compound of the present invention, KDS12025 (Example 21) was administered was referred to as “APP+DTR+KDS12025”. […]

Data set [4] addresses hemoglobin (Hb) (Homo sapiens, UniProt P68871+P69905). In words: Hydrogen peroxide scavenging ability with hemoglobin (Amplex Red H2O2 assay). The data set is classed as biochemical. As to conditions: 10 μM H2O2, 80 μg/ml hemoglobin, 37° C. about 30 minutes. Here is the method: Amplex Red is a means which turns into a fluorescent substance called resorufin when horse radish peroxidase (HRP) and H2O2 exist together and allows measurement of changes in H2O2, that is, H2O2 assay. […] The experiment was performed by adding hemoglobin instead of HRP to the H2O2 assay by Amplex Red (FIG. 1). The final concentration of each substance was 10 μM of H2O2 and 80 μg/ml of hemoglobin, and the aminoaromatic compound of the present invention was treated by concentration. After the reaction at 37° C. for about 30 minutes as such, fluorescence (excitation: 540 nm, emission: 580 nm) was measured by a microplate reader. At this time, it can be said that fluorescence is proportional to the amount of H2O2. Normalization was performed for each concentration based on a fluorescence value without a drug, and a value at which the fluorescence value was 50%, that is, a half maximal effective concentration (EC50) was determined by a program through statistical processing. The results are shown in the following Table 2, and AAD-2004 was used as a control group.

The test system of data set [5] is APP/PS1 mouse hippocampus astrocytes (GFAP). The experiment in a line: Immunohistochemistry (IHC) II of brain tissue. The data set is classed as in vivo. Here is the method: as §1
The Alzheimer's animal model of Experimental Example 5 was used to perform histochemical staining of the brain tissue in the same manner as in Experimental Example 4, and the results are shown in FIG. 7.

The subject of data set [6] is APP/PS1+GiD Alzheimer's model mouse (APP+DTR). The experiment in a line: Passive avoidance test (PAT) in APP/PS1+GiD mouse. The data set is classed as in vivo. Here is the method:
In the present experiment, APP/PS1+GiD was produced by injecting AAV-GFAP104-DTR-GFP virus into the hippocampus of the APP/PS1 mouse, and hereinafter, is referred to as “APP+DTR”. In addition, the product obtained by injecting AAV-GFAP104-GFP virus into the hippocampus of the APP/PS1 mouse was referred to as “APP+GFP”. In addition, APP+DTR to which the aminoaromatic compound of the present invention, KDS12025 (Example 21) was administered was referred to as “APP+DTR+KDS12025”. In addition, as the WT mouse, APP/PS1 and littermate were used, and the product obtained by injecting AAV-GFAP104-GFP virus into the hippocampus of the WT mouse was referred to as “WT+GFP” and the product obtained by injecting AAV-GFAP104-DTR-GFP virus into the hippocampus of the WT mouse was referred to as “WT+DTR”.
In addition, as a result of PAT, the normal mouse (WT+GFP) remembered the dark room where it was given an electrical stimulation well and took a long time to enter the dark room.

Data set [7] concerns APP/PS1 mouse hippocampus cells. The experiment in a line: Electrophysiology experiment (tonic GABA). The data set is classed as in vivo. Particulars: 3 mg/kg/day or 10 mg/kg/day. Here is the method:
The Alzheimer's animal model of Experimental Example 5 was used to confirm the influence of astrocytes and the mechanism causing memory impairment in dementia through an electrophysiology experiment.
Therefore, in the present experimental example, each of the APP/PS1 mouse as the Alzheimer's animal model, the APP/PS1 mouse treated with 3 mg/kg/day or 10 mg/kg/day, respectively, of the aminoaromatic compound of the present invention, KDS12025 (Example 21), and a healthy normal mouse (wild type, WT) was anesthetized, and brain tissues were obtained therefrom to measure an electrical signal of living hippocampus cells. Thus, the tonic GABA which inhibits neurotransmission in a brain cell was measured. The results are illustrated in FIG. 8.

In data set [8] the test system is WT mouse (C57BL/6 mouse). In words: Single toxicity assessment (lethal dose 50, LD50). The data set is classed as in vivo. As for the experimental part: The aminoaromatic compound of the present invention, KDS12008 (Example 1), KDS12017 (Example 16), or KDS12025 (Example 21) was intraperitoneally injected at a single dose of 100, 300, and 1000 mg/kg, respectively, into a WT mouse at about 8 weeks of age (C57BL/6 mouse), and it was assessed whether the animal was dead.

The test system of data set [9] is APP/PS1 mouse. In words: Passive avoidance test (PAT) II. The data set is classed as in vivo. Here is the method: (§2) On the first day of PAT, as an acquisition session, the mouse was allowed to stay in a bright room, and after a certain time, a dark room was opened and a time for the mouse to enter the dark room was measured. When the mouse entered the dark room, an electrical shock (0.5 mA, 2 sec) was given by a foothold. On the second day, as a retrieval session, the mouse was placed in a bright room, and a time for the mouse to enter a dark room was measured. At this time, the door of the dark room was opened first.
3 mg/kg/day (3 mpk) and 10 mg/kg/day (10 mpk) of the aminoaromatic compound of the present invention, KDS12025 (Example 21) was intraperitoneally injected into the APP/PS1 mouse which is used as an Alzheimer's animal model for one week, and the passive avoidance test was performed in the same manner as in Experimental Example 3. The results are illustrated in FIG. 6.

For data set [10], the system named is APP/PS1 mouse. In words: Passive avoidance test (PAT) I. Particulars: 3 mg/kg/day IP for 16 days. The data set is classed as in vivo. Here is the method:
A passive avoidance test is an experiment to check the memory of animals, in which a weak electric stimulation was given in a dark room and it was assessed whether the animal remembered the electrical stimulation.
Since mice preferred a dark room, they have a tendency to move quickly to a dark room when they are in a bright room. […] A time to move from a bright room to a dark room (latency to dark room, sec) was measured, thereby measuring memory of a combination of the electrical stimulation and the dark room. An APP/PS1 mouse which is used as an Alzheimer's animal model was used to perform the passive avoidance test (FIG. 4). A wild type (WT) mouse was used as a control group.
as §2
The APP/PS1 dementia mouse was intraperitoneally injected with the aminoaromatic compound of the present invention (KDS12008 (Example 1), KDS12017 (Example 16), or KDS12025 (Example 21)) (KDS12008 (Example 1) 30 mg/kg/day (30 mpk); KDS12017 (Example 16) 30 mg/kg/day (30 mpk); KDS12025 (Example 21) 3 mg/kg/day (3 mpk)) for 16 days (intraperitoneal injection, IP).

hemoglobin (Hb), sequence (P69905 2-142 limits assumed): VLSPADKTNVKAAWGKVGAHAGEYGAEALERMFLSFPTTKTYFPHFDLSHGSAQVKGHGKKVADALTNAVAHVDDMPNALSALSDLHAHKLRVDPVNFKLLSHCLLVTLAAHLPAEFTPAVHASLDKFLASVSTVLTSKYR
hemoglobin (Hb), sequence (P68871 2-147 limits assumed): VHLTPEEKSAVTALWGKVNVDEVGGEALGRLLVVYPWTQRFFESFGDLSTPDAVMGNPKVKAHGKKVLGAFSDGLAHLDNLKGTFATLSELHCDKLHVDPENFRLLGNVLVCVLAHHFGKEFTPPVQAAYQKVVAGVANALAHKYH

By Papp is commonly meant the rate of passage across a membrane or cell layer, normalised by area and donor concentration. Broadly, the EC50 is the concentration giving half of the maximal effect. For the molecule `CNc1ccc(NCCc2ccccc2OC)cc1` [Example 21], in data set [1], the “GFAP (astrocytes) in hippocampus” value is reported as “decreased GFAP”. The molecule also displayed a Papp at 50 μM in [2] of 67.4 ×10⁻⁶ cm/s. For the same molecule, the “cognitive function (novel place recognition)” value in data set [3] is “recovered cognitive function”. In addition, in [4], the concentration for a half-maximal effect (EC50) amounted to 60 nM. For the same molecule, the “astrocytes (GFAP staining) in hippocampus” value in data set [5] (3 mg/kg/day IP for one week) and in data set [5] (10 mg/kg/day IP for one week) was “astrocytes returned to a healthy normal level” in each case. Further, the “memory in passive avoidance test” value is given as “recovered memory” in data set [6], “maintained its memory similarly to the healthy normal mouse” in [9] (3 mg/kg/day IP for one week) and “maintained its memory similarly to the healthy normal mouse” in data set [9] (10 mg/kg/day IP for one week). Moreover, the “tonic GABA” value in [7] is “decreased tonic GABA”. The animals died entry in data set [8] (C57BL/6, mouse, in vivo, ip, 300 mg/kg) is listed as “about 50%”. Moreover, the “toxicity (death of animals)” value in data set [8] (mouse, in vivo, ip, 1000 mg/kg) is reported as “showed toxicity”. Moreover, the lethal toxicity entry in [8] (single dose 100 mg/kg IP, C57BL/6 mouse) was “lethal toxicity was not shown”. The “latency to dark room (impaired memory)” value in [10] is given as “significantly recovered”.
